# Laboratory results published in the SangsterLogP compilation.
# Experiment: method code SF-HPLC, from DOI: 10.1021/je9900629
row,Compound,logP
1,OC1C2CCC(C2)C1O (stereo unspecified),0.4
2,OC1CC2CCC1C2O (stereo unspecified),0.4
3,OCC1CC2CCC1C2 (stereo unspecified),1.99
4,OC1C2CC3C1C3C2O (stereo unspecified),-0.42
5,C1CC2CCC1C2,3.78

# Now from value to compound:
row,logP,Compound
1,0.81,O=C1C2CC3C(C2)C13
2,1.58,C1CC2CC1C1OC21 (stereo unspecified)
3,2.9,C1C2C3C2C2C1C32 (stereo unspecified)
4,1.07,OC(C1CC1)C1CC1
5,3.35,ClC1CC2CCC1C2 (stereo unspecified)
6,1.45,OC1CC2CCC1C2 (stereo unspecified)

# Experiment: not given
row,logP,Compound
1,3.11,BrC12CC3CC1C2C3
2,3.54,BrC1CC2CCC1C2 (stereo unspecified)

# Experiment: method code SF-AS, from DOI: 10.1021/je9900629
row,logP,Compound
1,1.24,OC1CC2C=CC1C2 (stereo unspecified)
2,2.67,C1=CC2C=CC1C2
3,3.24,C1=CC2CCC1C2
